Data reported in patent EP2812315B1, “PYRROLIC DERIVATIVES, PROCESSES FOR PREPARING THE SAME AND THEIR USES AS A DRUG” (Universite Joseph Fourier, priority 2012, dated 2013).
Converted amounts (≈) assume the structure as drawn. Where two headings read alike, the source gives them in different places.

Legend:
Assay type in all cases: cell-based
[1] = tested on: Acinetobacter baumanii ATCC 19606; assay: MIC determination, microdilution method (CLSI M07-A8); conditions: Acinetobacter baumannii
Method: (§1) The microdilution method recommended by the Clinical and Laboratory Standard Institute [M07-A8, Vol.29, N°2] was used. The activity of pyrrolic compounds was tested against 29 bacterial strains belonging to 17 different species and 12 different genera (Staphylococcus, Streptococcus, Enterococcus, […], Bacillus, Haetttophilus, Escherichia, Klebsiella, Enterobacter, Serratia, Pseudomonas, and Acinetobacter). Bacterial inocula were prepared in Mueller Hinton broth (MH2, bioMérieux, Marcy L'Etoile, France), supplemented with 10% sheep blood for fastidious species (i.e., Streptococcus pneumoniae and Haemophilus influenzae). They were dispensed in 96 well microtiter plates (5 x 10^5 CFU/mL of final inoculum). Pyrrolic compounds were added to the wells as to obtain two-fold serial concentrations (0.25-64 mg/L). Plates were incubated at 37°C, in 5% CO2 enriched atmosphere for fastidious species only. MICs were read after 18 hours incubation of cultures, and corresponded to the minimum pyrrolic compound concentration that allowed complete visual growth inhibition of bacteria. Drug-free cultures served as growth controls. Cultures receiving gentamicine, ciprofloxacine or cefotaxime served as positive controls.

[2] = tested on: Enterobacter cloacae ATCC13047; assay: as above
Method: as §1

[3] = tested on: Escherichia coli ATCC 25922; assay: as above
Method: as §1

[4] = tested on: Klebsiella pneumoniae ATCC 35657; assay: as above
Method: as §1

[5] = tested on: Pseudomonas aeruginosa CIP 5933; assay: as above
Method: as §1

[6] = tested on: Serratia marcescens CIP 103551; assay: as above
Method: as §1

[7] = tested on: Staphylococcus aureus ATCC 106414 (VISA); assay: as above; conditions: 5 x 10^5 CFU/mL, 18 hours incubation
Method: as §1

[8] = tested on: Staphylococcus aureus ATCC 25923; assay: as above
Method: as §1

[9] = tested on: Staphylococcus aureus ATCC 29213; assay: as above
Method: as §1

[10] = tested on: Staphylococcus aureus ATCC 33592 (MRSA); assay: as above; conditions: 5 x 10^5 CFU/mL, 18 hours incubation
Method: as §1

[11] = tested on: Staphylococcus aureus ATCC 6538; assay: as above; conditions: ATCC6538, 5 x 10^5 CFU/mL, 18 hours incubation
Method: as §1

[12] = tested on: Staphylococcus aureus ATCC 9144; assay: as above; conditions: ATCC9144, 5 x 10^5 CFU/mL, 18 hours incubation
Method: as §1

[13] = tested on: Staphylococcus aureus CIP 103428; assay: as above; conditions: CIP103428, 5 x 10^5 CFU/mL, 18 hours incubation
Method: as §1

[14] = tested on: Staphylococcus aureus CIP 65.25 (MRSA); assay: as above; conditions: 5 x 10^5 CFU/mL, 18 hours incubation
Method: as §1

[15] = tested on: Staphylococcus aureus CIP 65.6; assay: as above; conditions: CIP65, 5 x 10^5 CFU/mL, 18 hours incubation
Method: as §1

[16] = tested on: Staphylococcus epidermidis ATCC 12228; assay: as above
Method: as §1

[17] = tested on: Staphylococcus epidermidis CIP 103627; assay: as above; conditions: CIP103627, 5 x 10^5 CFU/mL, 18 hours incubation
Method: as §1

[18] = tested on: Staphylococcus epidermidis CIP 81.55; assay: as above; conditions: CIP81, 5 x 10^5 CFU/mL, 18 hours incubation
Method: as §1

[19] = tested on: HCT116 (human colon tumor); assay: In vitro cytotoxicity; conditions: HCT-116, 10^-5 M in DMSO, triplicate, read-out: % of cellular growth inhibition
Method: (§2) In vitro cytotoxicity was assayed on three cell lines - KB (human mouth carcinoma), MCR5 (human lung fibroblast) and HCT116 (human colon tumor). Results are presented in table III as % of cellular growth inhibition in presence of 10^-5 M and 10^-6 M of the tested bis-pyrrolic derivatives in DMSO (triplicate).

[20] = tested on: KB (human mouth carcinoma); assay: In vitro cytotoxicity; conditions: 10^-5 M in DMSO, triplicate, read-out: % of cellular growth inhibition
Method: as §2

MRC5 = assay: In vitro cytotoxicity; conditions: MRC5 (human lung fibroblast); 10^-5 M in DMSO; triplicate; read-out: % of cellular growth inhibition
Method: as §2

[21] = tested on: Bacillus subtilis CIP 5262; assay: MIC determination, microdilution method (CLSI M07-A8); conditions: CIP5262, 18 hours incubation
Method: as §1

[22] = tested on: Enterococcus faecalis ATCC 29212; assay: as above; conditions: ATCC29212, 18 hours incubation
Method: as §1

[23] = tested on: Enterococcus faecium CIP 54.32; assay: as above; conditions: CIP54, 18 hours incubation
Method: as §1

[24] = tested on: Haemophilus influenzae ATCC 49766; assay: as above; conditions: ATCC49766, 10% sheep blood, 5% CO2, 18 hours incubation
Method: as §1

[25] = tested on: Listeria innocua CIP 80.11; assay: as above; conditions: CIP80, 18 hours incubation
Method: as §1

[26] = tested on: Staphylococcus aureus SA-1199B; assay: as above; conditions: SA1199B, 18 h
Method: as §1

[27] = tested on: Streptococcus agalactiae (group B) ATCC 12400; assay: as above; conditions: ATCC12400, 18 hours incubation
Method: as §1

[28] = tested on: Streptococcus mitis CIP 103335; assay: as above; conditions: CIP103335, 18 hours incubation
Method: as §1

[29] = tested on: Streptococcus pneumoniae ATCC 49619; assay: as above; conditions: ATCC49619, 10% sheep blood, 5% CO2, 18 hours incubation
Method: as §1

[30] = tested on: Streptococcus pneumoniae ATCC 6303; assay: as above; conditions: ATCC6303, 10% sheep blood, 5% CO2, 18 hours incubation
Method: as §1

[31] = tested on: Streptococcus pyogenes (group A) CIP 104226; assay: as above; conditions: CIP104226, 18 hours incubation
Method: as §1

[32] = ATCC19606, Acinetobacter baumanii ATCC 19606, 18 hours incubation, read-out: MIC
[33] = Enterobacter cloacae ATCC13047, 18 hours incubation, read-out: MIC
[34] = ATCC25922, Escherichia coli ATCC 25922, 18 hours incubation, read-out: MIC
[35] = ATCC35657, Klebsiella pneumoniae ATCC 35657, 18 hours incubation, read-out: MIC
[36] = CIP5933, Pseudomonas aeruginosa CIP 5933, 18 hours incubation, read-out: MIC
[37] = CIP103551, Serratia marcescens CIP 103551, 18 hours incubation, read-out: MIC
[38] = ATCC25923, Staphylococcus aureus ATCC 25923, 5 x 10^5 CFU/mL, 18 hours incubation, read-out: MIC
[39] = ATCC29213, Staphylococcus aureus ATCC 29213, 5 x 10^5 CFU/mL, 18 hours incubation, read-out: MIC
[40] = ATCC12228, Staphylococcus epidermidis ATCC 12228, 5 x 10^5 CFU/mL, 18 hours incubation, read-out: MIC

CC(=O)c1c(C)[nH]c(C(c2ccc([N+](=O)[O-])cc2)c2[nH]c(C)c(C(C)=O)c2C)c1C [3d]
MIC [1, 32]: > 128 µg/mL
MIC [2, 33]: > 128 µg/mL
MIC [3, 34]: > 128 µg/mL
MIC [4, 35]: > 128 µg/mL
MIC [5, 36]: > 128 µg/mL
MIC [6, 37]: > 128 µg/mL
MIC [7]: 8 µg/mL (≈ 19.6 µM)
MIC [8, 38]: > 32 µg/mL
MIC [9, 39]: 8 µg/mL (≈ 19.6 µM)
MIC [10]: > 32 µg/mL
MIC [11]: > 32 µg/mL
MIC [12]: > 32 µg/mL
MIC [13]: > 32 µg/mL
MIC [14]: 8 µg/mL (≈ 19.6 µM)
MIC [15]: 16 µg/mL (≈ 39.3 µM)
MIC [16, 40]: > 128 µg/mL
MIC [17]: > 128 µg/mL
MIC [18]: > 128 µg/mL
inhibition at 10 µM [19]: 0%
inhibition at 10 µM [20]: 0%
inhibition at 10 µM (MRC5): 0%

CC(=O)c1c(C)[nH]c(C(c2cccs2)c2[nH]c(C)c(C(C)=O)c2C)c1C [3l]
MIC [1, 32]: > 32 µg/mL
MIC [2, 33]: > 32 µg/mL
MIC [3, 34]: > 32 µg/mL
MIC [4, 35]: > 32 µg/mL
MIC [5, 36]: > 32 µg/mL
MIC [6, 37]: > 32 µg/mL
MIC [8, 38]: 4 µg/mL (≈ 10.9 µM)
MIC [9, 39]: 8 µg/mL (≈ 21.7 µM)
MIC [16, 40]: > 128 µg/mL
inhibition at 10 µM [19]: 11 ± 7%
inhibition at 10 µM [20]: 9 ± 5%
inhibition at 10 µM (MRC5): 6 ± 3%

CC(=O)c1c(C)[nH]c(C(c2ccccc2O)c2[nH]c(C)c(C(C)=O)c2C)c1C [3m]
MIC ([1]; ATCC19606, 18 h): > 32 µg/mL
MIC ([2]; Enterobacter cloacae, ATCC13047, 18 h): > 32 µg/mL
MIC ([3]; Escherichia coli, ATCC25922, 18 h): > 32 µg/mL
MIC ([4]; Klebsiella pneumoniae, ATCC35657, 18 h): > 32 µg/mL
MIC ([5]; Pseudomonas aeruginosa, CIP5933, 18 h): > 32 µg/mL
MIC ([6]; Serratia marcescens, CIP103551, 18 h): > 32 µg/mL
MIC ([8]; Staphylococcus aureus, ATCC25923, 18 h): 8 µg/mL (≈ 21.1 µM)
MIC ([9]; Staphylococcus aureus, ATCC29213, 18 h): 4 µg/mL (≈ 10.6 µM)
MIC ([16]; Staphylococcus epidermidis, ATCC12228, 18 h): > 128 µg/mL
inhibition at 10 µM [19]: 0%
inhibition at 10 µM [20]: 6 ± 10%
inhibition at 10 µM (MRC5): 1 ± 17%

CCC(c1[nH]c(C)c(C(C)=O)c1C)c1[nH]c(C)c(C(C)=O)c1C [3a]
MIC [1, 32]: > 128 µg/mL
MIC [21]: > 128 µg/mL
MIC [2, 33]: > 128 µg/mL
MIC [22]: > 128 µg/mL
MIC [23]: > 128 µg/mL
MIC [3, 34]: > 128 µg/mL
MIC [24]: > 128 µg/mL
MIC [4, 35]: > 128 µg/mL
MIC [25]: > 128 µg/mL
MIC [5, 36]: > 128 µg/mL
MIC [6, 37]: > 128 µg/mL
MIC [7]: 32 µg/mL (≈ 102 µM)
MIC [8, 38]: 32 µg/mL (≈ 102 µM)
MIC [9, 39]: 32 µg/mL (≈ 102 µM)
MIC [10]: 16 µg/mL (≈ 50.9 µM)
MIC [11]: 16 µg/mL (≈ 50.9 µM)
MIC [12]: > 128 µg/mL
MIC [13]: 32 µg/mL (≈ 102 µM)
MIC [14]: 16 µg/mL (≈ 50.9 µM)
MIC [15]: 32 µg/mL (≈ 102 µM)
MIC [26]: 32 µg/mL (≈ 102 µM)
MIC [16, 40]: > 128 µg/mL
MIC [17]: > 128 µg/mL
MIC [18]: > 128 µg/mL
MIC [27]: > 128 µg/mL
MIC [28]: > 128 µg/mL
MIC [29]: > 128 µg/mL
MIC [30]: > 128 µg/mL
MIC [31]: > 128 µg/mL
inhibition at 10 µM [19]: 41%
inhibition at 10 µM [20]: 30%

CC(=O)c1c(C)[nH]c(C(c2ccccc2I)c2[nH]c(C)c(C(C)=O)c2C)c1C [3k]
MIC [1, 32]: > 32 µg/mL
MIC [2, 33]: > 32 µg/mL
MIC [3, 34]: > 32 µg/mL
MIC [4, 35]: > 32 µg/mL
MIC [5, 36]: > 32 µg/mL
MIC [6, 37]: > 32 µg/mL
MIC [8, 38]: 8 µg/mL (≈ 16.4 µM)
MIC [9, 39]: 4 µg/mL (≈ 8.19 µM)
MIC [16, 40]: > 128 µg/mL
inhibition at 10 µM [19]: 0%
inhibition at 10 µM [20]: 20 ± 8%
inhibition at 10 µM (MRC5): 3 ± 5%

CC(=O)c1c(C)[nH]c(C(c2ccccc2)c2[nH]c(C)c(C(C)=O)c2C)c1C [3b]
MIC [1, 32]: > 128 µg/mL
MIC [21]: > 128 µg/mL
MIC [2, 33]: > 128 µg/mL
MIC [22]: > 128 µg/mL
MIC [23]: > 128 µg/mL
MIC [3, 34]: > 128 µg/mL
MIC [24]: > 128 µg/mL
MIC [4, 35]: > 128 µg/mL
MIC [25]: > 128 µg/mL
MIC [5, 36]: > 128 µg/mL
MIC [6, 37]: > 128 µg/mL
MIC [7]: 4 µg/mL (≈ 11 µM)
MIC [8, 38]: 4 µg/mL (≈ 11 µM)
MIC [9, 39]: 4 µg/mL (≈ 11 µM)
MIC [10]: 8 µg/mL (≈ 22.1 µM)
MIC [11]: 4 µg/mL (≈ 11 µM)
MIC [12]: 8 µg/mL (≈ 22.1 µM)
MIC [13]: 4 µg/mL (≈ 11 µM)
MIC [14]: 8 µg/mL (≈ 22.1 µM)
MIC [15]: 4 µg/mL (≈ 11 µM)
MIC [26]: 8 µg/mL (≈ 22.1 µM)
MIC [16, 40]: > 128 µg/mL
MIC [17]: > 128 µg/mL
MIC [18]: > 128 µg/mL
MIC [27]: > 128 µg/mL
MIC [28]: > 128 µg/mL
MIC [29]: > 128 µg/mL
MIC [30]: > 128 µg/mL
MIC [31]: > 128 µg/mL
inhibition at 10 µM [19]: 43%
inhibition at 10 µM [20]: 32%
